Data on ten compounds can be found in patent US6710048B2, “Pyrazine derivatives as modulators of tyrosine kinases” (Ortho-McNeil Pharmaceutical, Inc., priority 2000, dated 2004).

The IC50 is the point on the concentration scale where inhibition reaches its midpoint.

For the experiment, the target named is T1, CDK1 (cyclin dependent kinase 1) / cyclin B (Homo sapiens, UniProt P06493).
T1 construct: purchased New England Biolabs 6020; host or cells: insect cells
As to the kind of experiment: CDK1 kinase assay. It counts as biochemical.

Setting [1] is: Table 4 kinase selectivity, 10 = approximate value, read-out: IC50, Assay 2 CDK1.
[2] abbreviates: Tables 1-3, >10 or >100 = no 50% inhibition at highest dose tested, read-out: CDK IC50.

Like-named read-outs stand apart in the source and are kept apart here. A value given as a limit tells only on which side of the number the result lay.

T1 sequence (P06493 whole entry): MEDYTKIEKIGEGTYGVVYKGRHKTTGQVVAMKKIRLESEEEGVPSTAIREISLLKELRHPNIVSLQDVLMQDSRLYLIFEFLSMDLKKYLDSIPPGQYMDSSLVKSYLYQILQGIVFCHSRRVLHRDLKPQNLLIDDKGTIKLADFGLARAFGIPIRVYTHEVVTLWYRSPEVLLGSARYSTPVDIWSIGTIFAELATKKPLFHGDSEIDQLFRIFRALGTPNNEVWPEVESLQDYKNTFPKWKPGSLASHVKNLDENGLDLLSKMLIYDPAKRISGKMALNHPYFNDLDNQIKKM
T1 sequence (P14635 whole entry partner): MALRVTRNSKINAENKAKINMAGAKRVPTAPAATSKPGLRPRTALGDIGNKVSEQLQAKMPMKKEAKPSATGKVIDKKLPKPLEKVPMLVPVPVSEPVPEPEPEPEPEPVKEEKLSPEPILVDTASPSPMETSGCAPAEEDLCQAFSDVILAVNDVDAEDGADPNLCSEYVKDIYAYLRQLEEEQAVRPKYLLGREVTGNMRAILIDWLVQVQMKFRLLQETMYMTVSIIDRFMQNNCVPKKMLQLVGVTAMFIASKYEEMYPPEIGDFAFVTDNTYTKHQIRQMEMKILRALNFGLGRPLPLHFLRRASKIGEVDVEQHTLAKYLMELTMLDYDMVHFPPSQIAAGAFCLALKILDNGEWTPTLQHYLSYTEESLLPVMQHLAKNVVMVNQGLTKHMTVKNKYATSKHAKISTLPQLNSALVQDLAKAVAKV

For `OCCCNc1cncc(-c2cncc(Nc3cccc(Cl)c3)n2)c1` [Cmd 4], the IC50 was more than 10 µM under setting [1] and 5.96 µM under setting [2].

With `OCCCCNc1cncc(-c2cncc(Nc3cccc(Cl)c3)n2)c1` [Cmd 32], the IC50 reads like this: under setting [1], more than 100 µM; under setting [2], more than 100 µM.

Consider `CN(C)CCNc1cncc(-c2cncc(Nc3cccc(Cl)c3)n2)c1` [Cmd 33, N′-[5-[6-[(3-chlorophenyl)amino]pyrazinyl]-3-pyridinyl]-N^2,N^2-dimethyl-1,2-ethanediamine], for which the IC50 under setting [1] was more than 10 µM and the IC50 under setting [2] was approximately 10 µM.

For `CN(C)CCCNc1cncc(-c2cncc(Nc3cccc(Cl)c3)n2)c1` [Cmd 35], the IC50 under setting [1] is more than 10 µM and the IC50 under setting [2] is approximately 10 µM.

With `O=C(NCCCO)c1cncc(-c2cncc(Nc3cccc(Cl)c3)n2)c1` [Cmd 39], the IC50 is, setting by setting: under setting [1], 34.8 µM; under setting [2], 34.8 µM.

`Clc1cccc(Nc2cncc(-c3cncc(NCCCc4ccncc4)c3)n2)c1` [Cmd 71]: the IC50 is, setting by setting: under setting [1], more than 100 µM; under setting [2], more than 10 µM.

Consider `Clc1cccc(Nc2cncc(-c3cncc(NCCCc4cccnc4)c3)n2)c1` [Cmd 72], for which the IC50 under setting [1] is more than 100 µM and the concentration for half-maximal inhibition (IC50) under setting [2] is more than 10 µM.

Take `Clc1cccc(Nc2cncc(-c3cncc(NCCCN4CCCCC4)c3)n2)c1` [Cmd 73]: the IC50 under setting [1] is 6.1 µM and the IC50 under setting [2] came out at 3.24 µM.

For the compound `Clc1cccc(Nc2cncc(-c3cncc(NCCCn4cccn4)c3)n2)c1` [Cmd 75], the IC50 reads like this: under setting [1], more than 100 µM; under setting [2], more than 10 µM.

Take `Clc1cccc(Nc2cncc(-c3cncc(NCCCn4cncn4)c3)n2)c1` [Cmd 76]: the concentration for half-maximal inhibition (IC50) under setting [1] is more than 100 µM and the IC50 under setting [2] was more than 10 µM.
